The test deals with T1, Vigilin (HDLBP) (Homo sapiens, UniProt Q00341).
T1 construct: Protein extracts from human fibroblasts were incubated with magnetic beads; endogenous in cells; host or cells: human fibroblast lysate
T1 sequence (Q00341 1-1268): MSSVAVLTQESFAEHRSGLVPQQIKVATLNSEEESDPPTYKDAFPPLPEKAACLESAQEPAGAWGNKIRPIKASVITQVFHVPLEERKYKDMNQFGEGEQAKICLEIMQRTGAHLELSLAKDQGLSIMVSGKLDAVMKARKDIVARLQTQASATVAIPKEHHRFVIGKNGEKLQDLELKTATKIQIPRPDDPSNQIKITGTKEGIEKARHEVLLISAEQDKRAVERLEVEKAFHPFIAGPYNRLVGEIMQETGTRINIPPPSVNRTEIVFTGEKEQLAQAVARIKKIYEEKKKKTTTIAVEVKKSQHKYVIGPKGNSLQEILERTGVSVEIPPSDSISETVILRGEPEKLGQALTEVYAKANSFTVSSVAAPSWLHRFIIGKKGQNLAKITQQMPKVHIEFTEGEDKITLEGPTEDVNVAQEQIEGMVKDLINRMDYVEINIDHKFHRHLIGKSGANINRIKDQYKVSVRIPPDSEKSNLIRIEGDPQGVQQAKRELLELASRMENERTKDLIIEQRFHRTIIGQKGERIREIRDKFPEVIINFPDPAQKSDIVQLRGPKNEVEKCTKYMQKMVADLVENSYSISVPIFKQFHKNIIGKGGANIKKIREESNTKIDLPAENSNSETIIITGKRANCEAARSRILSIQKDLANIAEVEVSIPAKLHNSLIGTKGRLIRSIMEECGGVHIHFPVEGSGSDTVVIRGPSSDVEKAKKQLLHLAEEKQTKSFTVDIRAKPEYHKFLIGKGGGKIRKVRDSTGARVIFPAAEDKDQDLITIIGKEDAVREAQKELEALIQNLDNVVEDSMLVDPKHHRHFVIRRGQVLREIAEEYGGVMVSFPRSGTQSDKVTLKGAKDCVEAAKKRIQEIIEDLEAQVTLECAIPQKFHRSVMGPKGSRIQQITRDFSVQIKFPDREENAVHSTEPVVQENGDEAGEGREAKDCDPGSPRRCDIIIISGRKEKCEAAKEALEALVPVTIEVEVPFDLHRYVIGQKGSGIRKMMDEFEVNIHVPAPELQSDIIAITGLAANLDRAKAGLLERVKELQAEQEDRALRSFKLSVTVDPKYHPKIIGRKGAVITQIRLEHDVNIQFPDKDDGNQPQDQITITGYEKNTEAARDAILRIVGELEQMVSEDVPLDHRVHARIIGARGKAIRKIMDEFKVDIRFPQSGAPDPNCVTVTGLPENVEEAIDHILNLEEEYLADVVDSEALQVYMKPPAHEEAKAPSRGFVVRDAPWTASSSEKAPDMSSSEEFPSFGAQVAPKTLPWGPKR
In words: Affinity chromatography with NFX-beads and mass spectrometry. Type of test: binding. Particulars: spectral counts, NFX coupled beads vs beads alone, human fibroblast extracts.

`O=C(N/N=C/c1ccc([N+](=O)[O-])o1)c1ccc(O)cc1` [NFX, (E)-4-hydroxy-N′-((5-nitrofuran-2-yl)methylene)benzohydrazide] came in with a Fold change of 77.14.
